According to PubChem BioAssay (NCI):
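Five concentrations, 48 hours, 96-well plates. GI50 = concentration required for 50% inhibition of growth. TGI marks complete inhibition of growth.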

Columns and labels:
Experiment in all cases: DTP human tumour cell line panel, 48 h
[1] = test system: SK-OV-3 ovarian
[2] = test system: HCT-15 colon
[3] = test system: UACC-62 melanoma
[4] = test system: RXF 393 renal
[5] = test system: KM12 colon
[6] = test system: OVCAR-8 ovarian
[7] = test system: SK-MEL-2 melanoma
[8] = test system: SK-MEL-28 melanoma
[9] = test system: SF-268 CNS
[10] = test system: KM20L2 colon
[11] = test system: OVCAR-3 ovarian
[12] = test system: LOX IMVI melanoma
[13] = test system: IGROV1 ovarian
[14] = test system: LXFL 529 NSCLC
[15] = test system: HT29 colon
[16] = test system: NCI-H522 lung
[17] = test system: U251 CNS
[18] = test system: OVCAR-4 ovarian
[19] = test system: HCC-2998 colon
[20] = test system: 786-0 renal
[21] = test system: DMS 273 small cell lung
[22] = test system: A498 renal
[23] = test system: SN12C renal
[24] = test system: DLD-1 colon
[25] = test system: ACHN renal
[26] = test system: EKVX NSCLC
[27] = test system: HCT-116 colon
[28] = test system: HOP-62 NSCLC
[29] = test system: HOP-18 NSCLC
[30] = test system: NCI-H460 lung
[31] = test system: OVCAR-5 ovarian
[32] = test system: NCI-H23 lung
[33] = test system: MALME-3M melanoma
[34] = test system: COLO 205 colon
[35] = test system: SK-MEL-5 melanoma
[36] = test system: CCRF-CEM leukemia
[37] = test system: TK-10 renal
[38] = test system: UO-31 renal
[39] = test system: RPMI-8226 leukemia
[40] = test system: SNB-75 CNS
[41] = test system: SNB-78 CNS
[42] = test system: A549 NSCLC
[43] = test system: HOP-92 NSCLC
[44] = test system: SF-539 CNS
[45] = test system: HL-60(TB) leukemia
[46] = test system: M14 melanoma
[47] = test system: SW-620 colon
[48] = test system: SF-295 CNS
[49] = test system: K-562 leukemia
[50] = test system: UACC-257 melanoma
[51] = test system: MOLT-4 leukemia
[52] = test system: SR leukemia
[53] = test system: MDA-N
[54] = test system: T-47D breast
[55] = test system: MDA-MB-435
[56] = test system: HS 578T breast
[57] = test system: MDA-MB-231 breast
[58] = test system: NCI/ADR-RES ovarian
[59] = test system: DU-145 prostate
[60] = test system: PC-3 prostate
[61] = test system: MCF7 breast
[62] = test system: SNB-19 CNS
[63] = test system: CAKI-1 renal
[64] = test system: BT-549 breast
[65] = test system: NCI-H226 lung
[66] = test system: DMS 114 small cell lung
[67] = test system: M19-MEL melanoma

## N.N.NCCCCN.O=C([O-])CCl.O=C([O-])CCl.O=C([O-])CCl.O=C([O-])CCl.[Pt+4].[Pt+4]
[1]
  TGI: > 50 µM
[2]
  TGI: > 50 µM
[3]
  TGI: > 50 µM
[4]
  TGI: > 50 µM
[5]
  TGI: > 50 µM
[6]
  TGI: > 50 µM
[7]
  TGI: > 50 µM
[8]
  TGI: > 50 µM
[9]
  TGI: > 50 µM
[10]
  GI50: > 50 µM
  TGI: > 50 µM
[11]
  TGI: > 50 µM
[12]
  TGI: > 50 µM
[13]
  TGI: > 50 µM
[14]
  GI50: > 50 µM
  TGI: > 50 µM
[15]
  TGI: > 50 µM
[16]
  TGI: > 50 µM
[17]
  TGI: > 50 µM
[18]
  TGI: > 50 µM
[19]
  TGI: > 50 µM
[20]
  TGI: > 50 µM
[21]
  GI50: 36 µM
  TGI: > 50 µM
[22]
  TGI: > 50 µM
[23]
  GI50: 9.99 µM
  TGI: 49.8 µM
[24]
  GI50: > 50 µM
  TGI: > 50 µM
[25]
  TGI: > 50 µM
[26]
  TGI: > 50 µM
[27]
  TGI: > 50 µM
[28]
  TGI: > 50 µM
[29]
  GI50: > 50 µM
  TGI: > 50 µM
[30]
  TGI: > 50 µM
[31]
  TGI: > 50 µM
[32]
  TGI: > 50 µM
[33]
  TGI: > 50 µM
[34]
  TGI: > 50 µM
[35]
  TGI: > 50 µM
[36]
  TGI: > 50 µM
[37]
  TGI: > 50 µM
[38]
  TGI: > 50 µM
[39]
  GI50: > 50 µM
  TGI: > 50 µM
[40]
  TGI: > 50 µM
[41]
  GI50: > 50 µM
  TGI: > 50 µM
[42]
  TGI: > 50 µM
[43]
  TGI: > 50 µM
[44]
  TGI: > 50 µM
[45]
  TGI: > 50 µM
[46]
  TGI: > 50 µM
[47]
  TGI: > 50 µM
[48]
  TGI: > 50 µM
[49]
  TGI: > 50 µM
[50]
  TGI: > 50 µM
[51]
  TGI: > 50 µM
[52]
  TGI: > 50 µM

## Nc1c2c(nc3ccccc13)-c1ccccc1CCC2
[53]
  TGI: 25.9 µM
[1]
  TGI: 31 µM
[2]
  TGI: 27.3 µM
[3]
  TGI: 22.7 µM
[4]
  TGI: 23.7 µM
[5]
  TGI: 33.4 µM
[6]
  TGI: 29.1 µM
[54]
  TGI: 37.5 µM
[7]
  TGI: 28.2 µM
[8]
  TGI: 27.3 µM
[9]
  TGI: 37.2 µM
[11]
  TGI: 29.8 µM
[12]
  TGI: 25.3 µM
[13]
  TGI: 37.7 µM
[15]
  TGI: 25.9 µM
[16]
  TGI: 32.4 µM
[17]
  TGI: 28.3 µM
[18]
  TGI: 35.6 µM
[19]
  TGI: 12.2 µM
[55]
  TGI: 26.3 µM
[20]
  TGI: 27.1 µM
[56]
  TGI: 43.2 µM
[57]
  TGI: 27.8 µM
[58]
  TGI: 34.3 µM
[59]
  TGI: 32.8 µM
[22]
  TGI: 21.4 µM
[60]
  TGI: 36.3 µM
[23]
  TGI: 36.5 µM
[25]
  TGI: 26.5 µM
[26]
  TGI: 44.8 µM
[27]
  TGI: 20.2 µM
[61]
  TGI: 28.6 µM
[62]
  TGI: 55.4 µM
[28]
  TGI: 22.3 µM
[63]
  TGI: 32.5 µM
[30]
  TGI: 18 µM
[31]
  TGI: 30 µM
[64]
  TGI: 44.4 µM
[32]
  TGI: 37.8 µM
[33]
  TGI: 27.5 µM
[34]
  TGI: 27.1 µM
[35]
  TGI: 20.1 µM
[36]
  TGI: 49.1 µM
[37]
  TGI: 25.2 µM
[38]
  TGI: 22.3 µM
[39]
  TGI: 33.5 µM
[40]
  TGI: 24.2 µM
[65]
  TGI: 28.9 µM
[42]
  TGI: 29.9 µM
[43]
  TGI: 25.9 µM
[44]
  TGI: 26.2 µM
[45]
  TGI: 26.4 µM
[46]
  TGI: 25.8 µM
[47]
  TGI: 26.2 µM
[48]
  TGI: 19.1 µM
[49]
  TGI: 33.8 µM
[50]
  TGI: 19.4 µM
[51]
  TGI: 33 µM
[52]
  TGI: 11 µM

## CCOc1ccccc1NC(=O)C(=O)C1C(=O)Nc2ccccc2S1=O (configuration not stated)
[1]
  TGI: > 100 µM
[2]
  TGI: > 100 µM
[4]
  TGI: > 100 µM
[7]
  TGI: > 100 µM
[8]
  TGI: > 100 µM
[9]
  TGI: > 100 µM
[11]
  TGI: > 100 µM
[14]
  TGI: > 100 µM
[66]
  TGI: > 100 µM
[16]
  TGI: > 100 µM
[17]
  TGI: > 100 µM
[19]
  TGI: > 100 µM
[20]
  TGI: > 100 µM
[21]
  TGI: > 100 µM
[27]
  TGI: > 100 µM
[29]
  TGI: > 100 µM
[30]
  TGI: > 100 µM
[33]
  TGI: > 100 µM
[36]
  TGI: > 100 µM
[38]
  TGI: > 100 µM
[39]
  TGI: > 100 µM
[41]
  TGI: > 100 µM
[42]
  TGI: > 100 µM
[45]
  TGI: > 100 µM
[46]
  TGI: > 100 µM
[49]
  TGI: > 100 µM
[51]
  TGI: > 100 µM

## COC(=O)C1=C(SC)SC2(C(=O)OC)C3C=C(C)C4C(N13)C42C(=O)OC (configuration not stated)
[1]
  TGI: > 100 µM
[2]
  TGI: > 100 µM
[3]
  TGI: > 100 µM
[4]
  TGI: > 100 µM
[6]
  TGI: > 100 µM
[7]
  TGI: > 100 µM
[8]
  TGI: > 100 µM
[9]
  TGI: > 100 µM
[10]
  TGI: > 100 µM
[11]
  TGI: > 100 µM
[12]
  TGI: > 100 µM
[13]
  TGI: > 100 µM
[14]
  TGI: > 100 µM
[15]
  TGI: > 100 µM
[66]
  TGI: > 100 µM
[16]
  TGI: > 100 µM
[17]
  TGI: > 100 µM
[19]
  TGI: > 100 µM
[20]
  TGI: > 100 µM
[67]
  TGI: > 100 µM
[21]
  TGI: > 100 µM
[23]
  TGI: > 100 µM
[24]
  TGI: > 100 µM
[25]
  TGI: > 100 µM
[26]
  TGI: > 100 µM
[27]
  TGI: > 100 µM
[62]
  TGI: > 100 µM
[28]
  TGI: > 100 µM
[63]
  TGI: > 100 µM
[30]
  TGI: > 100 µM
[31]
  TGI: > 100 µM
[32]
  TGI: > 100 µM
[33]
  TGI: > 100 µM
[34]
  TGI: > 100 µM
[35]
  TGI: > 100 µM
[36]
  TGI: > 100 µM
[37]
  TGI: > 100 µM
[38]
  TGI: > 100 µM
[39]
  TGI: > 100 µM
[40]
  TGI: > 100 µM
[65]
  TGI: > 100 µM
[42]
  TGI: > 100 µM
[44]
  TGI: > 100 µM
[45]
  TGI: > 100 µM
[46]
  TGI: > 100 µM
[47]
  TGI: > 100 µM
[48]
  TGI: > 100 µM
[49]
  TGI: > 100 µM
[50]
  TGI: > 100 µM
[51]
  TGI: > 100 µM
[52]
  TGI: > 100 µM
